Test results taken from patent publication US20230124862A1, “BISMUTH THIOL COMPOUNDS AND COMPOSITIONS AND METHODS OF TREATING MICROBIAL CO-INFECTIONS” (Microbion Corporation, priority 2020, published 2023).
Values after ≈ are worked out from the molar mass of the structure shown. Where two headings read alike, the source gives them in different places. Marks after values point to notes of the source that are not given here.

Assays:
E. coli ATCC 25922 = test: MIC control strain; details: QC organism, Example 13
in vivo [1] = details: rat, rats, lung-deposited dose, read-out: acute no observed adverse effect level (NOAEL)
Method: Based on rat tox and PK data to date, an acute no observed adverse effect level (NOAEL) in rats is approximately 100 μg/kg lung-deposited dose. The NOAEL was established through clinical observation during and after treatment, gross necropsy, lung lavage analysis, clinical chemistry, and hematology results. […] Furthermore, lung surface fluid concentrations are approximately 30-fold higher than the corresponding total lung tissue concentrations for BisEDT which appears to persist primarily on the lumen.

in vivo [2] = test: in vivo; set-up: species or system beagle dogs; details: dog; for half-life: two-dose inhalation
Method: Once adequately conditioned to the restraint device and face-masks, the animals are individually exposed to the test article aerosols. Animals receive a single face-mask inhalation exposure in a ramp study design to test article aerosols for up to 60 min. Animal observations during and post exposure determine the tolerance of inhaled BisEDT aerosols.
Blood Collections and Bioanalytical Analysis: Blood are collected for pharmacokinetic (PK) analysis prior to exposure, then at 4 hr (±5 min) post exposure, and again on Day 1, Day 2, Day 7 (pre- and 4 hr (±5 min)-post exposure), Day 8, Day 9, Day 10, Day 11, Day 12, Day 13, and Day 14. A total of 0.25 mL is collected at each timepoint. No PK blood is collected from the vehicle control (Group 1) animals; only animals exposed to BisEDT have blood collected for PK analysis. Collected samples are flash frozen without processing for shipment to Medpace for bioanalytical analysis. Additional blood is collected from all animals in all groups for hematology (1 mL) and clinical chemistry (1 mL) at baseline, Day 7 (pre-exposure), and again at euthanasia. Blood (2-2 mL) is collected from all animals at necropsy for coagulation analysis (d-Dimer, fibrinogen, PT, and PTT).
Blood for pharmacokinetic analysis (0.25 mL) is collected into tubes containing K3EDTA as an anticoagulant.
The left lobe of the lung is used for histopathology and will be fixed in 10% NBF. […] Liver, spleen, kidney, brain, heart, and respiratory tract are collected and fixed for potential, future analysis.
A two-dose inhalation PK study in dogs was performed covering four doses from 50 μg/kg to 450 μg/kg lung deposited dose. […] The systemic half-life is approximately 4 days, and the lung tissue half-life is approximately 7 days.

[3] = system: Gram-positive organisms (S. aureus, S. pneumoniae); details: cited from earlier work
P. aeruginosa = test: Broth microdilution MIC (Example 10); type: cell-based, Pseudomonas aeruginosa; details: initial MIC testing
Enterobacteriaceae = test: Broth microdilution MIC (Example 11); type: cell-based, E. coli, K. pneumoniae, Enterobacter cloacae
Pseudomonas aeruginosa = test: Broth microdilution MIC (Example 12); type: cell-based
Acinetobacter baumannii = test: Broth microdilution MIC (Example 12); type: cell-based
[4] = Animals 4001 and 4004, Day 14 (7 days after last dose)

CC(S)C(C)S.[Bi] (stereo not shown) [BisBDT, bismuth-2,3-butanedithiol]
MIC 24 hr (E. coli ATCC 25922): 0.5^a

C1C[S][Bi]([S]CC[S][Bi]2[S]CC[S]2)[S]1 [BisEDT, Bismuth-1,2-ethanedithiol]
NOAEL (in vivo [1]): ~0.1 mg/kg | half-life (in vivo [2]; beagle, in vivo, inhaled or intranasal, read-out: lung tissue half-life (converted)): ~168 h | half-life (in vivo [2]; beagle, in vivo, inhaled or intranasal, read-out: systemic half-life (converted)): ~96 h | Tmax (in vivo [2]; beagle, in vivo, inhaled or intranasal, whole blood, after both doses): ~24 h | average blood level (in vivo [2]; [4]): less than 20 ng/mL | lung tissue level (in vivo [2]; [4]): over 7,000 ng/g | CLSI acceptable MIC QC range ([3]; S. aureus ATCC 29213): (0.12-1) μg/mL | CLSI acceptable MIC QC range ([3]; S. pneumoniae ATCC 49619): (0.12-1) μg/mL

C[C@@H](O)[C@H]1C(=O)N2C(C(=O)O)=C(S[C@@H]3CN[C@H](C(=O)N(C)C)C3)[C@H](C)[C@H]12 [MEM]
MIC (P. aeruginosa; P. aeruginosa isolate 103, QC strain): 1 µg/mL (≈ 2.61 µM) | MIC (P. aeruginosa; P. aeruginosa isolate 1497 (TOB-R AMK-R, CIP-I, AZT-R, COL-R)): 0.06 µg/mL (≈ 0.156 µM) | MIC (P. aeruginosa; P. aeruginosa isolate 1530 (TOB-R, AMK-R, CIP-R)): 0.5 µg/mL (≈ 1.3 µM) | MIC (P. aeruginosa; P. aeruginosa isolate 1553 (TOB-R, AMK-R, CIP-R)): 0.5 µg/mL (≈ 1.3 µM) | MIC (P. aeruginosa; P. aeruginosa isolate 6322 (MEM-R, TOB-R, AMK-R, CIP-R, AZT-R)): 16 µg/mL (≈ 41.7 µM) | MIC (P. aeruginosa; P. aeruginosa isolate 6977 (MEM-I, TOB-R, CIP-R, AZT-I)): 4 µg/mL (≈ 10.4 µM) | MIC (P. aeruginosa; P. aeruginosa isolate 7745 (MEM-R, CIP-R, AZT-R)): 16 µg/mL (≈ 41.7 µM) | MIC (P. aeruginosa; P. aeruginosa isolate 7754 (MEM-R, TOB-R, CIP-R, AZT-I)): 32 µg/mL (≈ 83.4 µM) | MIC (P. aeruginosa; P. aeruginosa isolate 7762 (MEM-I, CIP-I)): 4 µg/mL (≈ 10.4 µM) | MIC (P. aeruginosa; P. aeruginosa isolate 7871 (MEM-R, AZT-I)): 8 µg/mL (≈ 20.9 µM) | MIC (P. aeruginosa; P. aeruginosa isolate 7874): 1 µg/mL (≈ 2.61 µM) | MIC (P. aeruginosa; P. aeruginosa isolate 7886 (MEM-R, CIP-R, AZT-R)): 32 µg/mL (≈ 83.4 µM) | MIC (P. aeruginosa; P. aeruginosa isolate 8797 (MEM-R, TOB-R, AMK-R, CIP-R, AZT-R, COL-R)): 32 µg/mL (≈ 83.4 µM) | MIC (P. aeruginosa; P. aeruginosa isolate 8798 (MEM-R, TOB-R, AMK-R, CIP-R, AZT-R, COL-R)): 64 µg/mL (≈ 167 µM) | MIC (P. aeruginosa; P. aeruginosa isolate 9108 (CIP-R, AZT-I)): 0.5 µg/mL (≈ 1.3 µM) | MIC (Enterobacteriaceae; E. cloacae (MMX 5981), NDM-1, LVX-R, MEM-R, CAZ-R, GEN-R): >64 µg/mL | MIC (Enterobacteriaceae; E. coli (MMX 102), QC): 0.03 µg/mL (≈ 0.0782 µM) | MIC (Enterobacteriaceae; E. coli (MMX 5980), NDM-1, LVX-R, MEM-R, CAZ-R, GEN-R): 32 µg/mL (≈ 83.4 µM) | MIC (Enterobacteriaceae; E. coli (MMX 8423), ESBL, LVX-R, CAZ-R, GEN-R): 0.03 µg/mL (≈ 0.0782 µM) | MIC (Enterobacteriaceae; E. coli (MMX 8424), ESBL, CAZ-R): 0.03 µg/mL (≈ 0.0782 µM) | MIC (Enterobacteriaceae; E. coli (MMX 8425), ESBL, LVX-R, CAZ-R, GEN-R): 0.015 µg/mL (≈ 0.0391 µM) | MIC (Enterobacteriaceae; K. pneumoniae (MMX 4622), KPC-2, MEM-R, CAZ-R): >64 µg/mL | MIC (Enterobacteriaceae; K. pneumoniae (MMX 4623), KPC-2, MEM-R, CAZ-R, GEN-R): >64 µg/mL | MIC (Enterobacteriaceae; K. pneumoniae (MMX 4653), KPC-3, LVX-R, MEM-R, CAZ-R): >64 µg/mL | MIC (Enterobacteriaceae; K. pneumoniae (MMX 4683), KPC-2, LVX-R, MEM-R, CAZ-R): 32 µg/mL (≈ 83.4 µM) | MIC (Enterobacteriaceae; K. pneumoniae (MMX 4684), ESBL, MEM-R): 8 µg/mL (≈ 20.9 µM) | MIC (Enterobacteriaceae; K. pneumoniae (MMX 4685), ESBL, LVX-R, MEM-R, CAZ-R): 4 µg/mL (≈ 10.4 µM) | MIC (Enterobacteriaceae; K. pneumoniae (MMX 4694), KPC-3, LVX-R, MEM-R, CAZ-R): 32 µg/mL (≈ 83.4 µM) | MIC (Enterobacteriaceae; K. pneumoniae (MMX 5979), NDM-1, LVX-R, MEM-R, CAZ-R, GEN-R): >64 µg/mL | MIC (Pseudomonas aeruginosa; P. aeruginosa ATCC 27853, ATCC QC organism (Table 102)): 0.25 µg/mL (≈ 0.652 µM) | MIC (Pseudomonas aeruginosa; P. aeruginosa CDC 230, VIM/OXA): >8 µg/mL | MIC (Pseudomonas aeruginosa; P. aeruginosa CDC 231, KPC/OXA): >8 µg/mL | MIC (Pseudomonas aeruginosa; P. aeruginosa CDC 241, IMP/OXA): >8 µg/mL | MIC (Pseudomonas aeruginosa; P. aeruginosa CDC 246, NDM/OXA): >8 µg/mL | MIC (Pseudomonas aeruginosa; P. aeruginosa CDC 250, NDM/OXA): >8 µg/mL | MIC (Pseudomonas aeruginosa; P. aeruginosa CDC 356, KPC): >8 µg/mL | MIC (Pseudomonas aeruginosa; P. aeruginosa CDC 439, IMP): >8 µg/mL | MIC (Pseudomonas aeruginosa; P. aeruginosa CDC 444, VIM): >8 µg/mL | MIC (Pseudomonas aeruginosa; P. aeruginosa CDC 457, VIM): >8 µg/mL | MIC (Pseudomonas aeruginosa; P. aeruginosa CDC 516, KPC/AmpC): >8 µg/mL | MIC (Pseudomonas aeruginosa; P. aeruginosa CDC 518, KPC/AmpC): >8 µg/mL | MIC (Acinetobacter baumannii; A. baumannii CDC 273, ESBL/OXA): >8 µg/mL | MIC (Acinetobacter baumannii; A. baumannii CDC 274, ESBL/OXA): >8 µg/mL | MIC (Acinetobacter baumannii; A. baumannii CDC 275, ESBL/OXA): >8 µg/mL | MIC (Acinetobacter baumannii; A. baumannii CDC 277, ESBL/OXA): >8 µg/mL | MIC (Acinetobacter baumannii; A. baumannii CDC 284, ESBL/OXA): >8 µg/mL | MIC (Acinetobacter baumannii; A. baumannii CDC 307, OXA): 8 µg/mL (≈ 20.9 µM) | MIC (Acinetobacter baumannii; A. baumannii CDC 308, ESBL/OXA): 8 µg/mL (≈ 20.9 µM) | MIC (Acinetobacter baumannii; A. baumannii CDC 311, OXA): >8 µg/mL | MIC (Acinetobacter baumannii; A. baumannii CDC 312, OXA): 4 µg/mL (≈ 10.4 µM) | MIC (Acinetobacter baumannii; A. baumannii CDC 313, ESBL/OXA): >8 µg/mL | MIC (Acinetobacter baumannii; A. baumannii NCTC 13304, OXA): >8 µg/mL
